Data as given in patent US12161632B2, “Compositions and methods of treating cardiac fibrosis with ifetroban” (Cumberland Pharmaceuticals Inc., priority 2014, dated 2024).
Structures can show the parent of a compound that is named as a salt.

Assays:
[1] = test system: right ventricle gene expression; test: Right ventricle gene expression, Affymetrix Mouse Gene 2.0 arrays (Example IV); type: in vivo, mice; conditions: sham surgery mice, 25 mg/kg/day, 2 weeks
Protocol: FVB/N mice or mice with a GFP macrophage-specific lineage tracing marker (LysM-Cre) underwent pulmonary banding to directly increase load stress (or sham surgery for controls), and starting the following day received either vehicle or the thromboxane receptor antagonist Ifetroban sodium in their drinking water (25 mg/kg/day). After 2 weeks, noninvasive hemodynamics were obtained by transthoracic echocardiography and invasive hemodynamics were obtained by pressure-volume catheterization of the right heart prior to sacrifice. Hearts were assessed for fibrosis and macrophage infiltration. RNA from right ventricles were isolated and used for unbiased discovery of altered gene expression using Affymetrix Mouse Gene 2.0 arrays performed on four groups (banded or sham). LysM-Cre mouse hearts were flash-frozen whole, cross-sectioned, and assessed by microscopy for fibrosis and macrophage infiltration. Differences between groups were assessed by ANOVA and t-tests. Correlations were assessed by Spearman correlation.

[2] = test system: RV monocytes / macrophages; test: Cardiac monocytes: LysM-Cre lineage tracing and flow cytometry of RV (Example VII); type: in vivo, mice; conditions: LysM-Cre reporter mice, aspirin
Protocol: Both male and female age-matched C57Bl/6 or FVB/NJ mice, obtained by in-house breeding, were used for pulmonary artery banding. LysM-GFP mice were obtained by cross-breeding LysM-Cre×mTomato/GFP reporter mice B6.129P2-Lyz2tm1(cre)Ifo/J (a gift from Tim Blackwell)×Gt(ROSA)26Sortm4(ACTB-tdTomato, -EGFP)Luo (JAX stock #007676). The day following surgery, mice were given either 25 mg/kg/day IFETROBAN (Cumberland Pharmaceuticals Inc., Nashville, TN) in drinking water or normal drinking water (vehicle) for 2 weeks or 6 weeks prior to hemodynamic evaluation. Mice were weighed and water was changed once a week.
TP receptors are also expressed on monocytes, and blockade of these receptors may have immune-specific effects. To determine whether the decrease in fibrosis seen with TP receptor inhibition was due to decreased macrophage infiltration or proliferation in the RV, PAB on LysM-Cre mice expressing eGFP under the LysozymeM promoter was performed, where all cells that have ever had monocyte lineage are labeled with GFP, even if they have later differentiated. […] Transgenic LysM-Cre×flox-mTomato-flox eGFP mice were used to label cells of monocyte derivation in the RV. These mice express a fluorescent red, except in cells derived from monocyte lineage (even if they have later differentiated), which express a fluorescent green. […] Flow sorting of whole RV for circulating markers found a non-significant trend towards an increase in PA-banded mice that was blocked by ifetroban.

[3] = test system: pulmonary artery banding (PAB) model of right ventricular pressure overload; test: PAB model of right ventricular pressure overload: hemodynamics, echocardiography, histology (Example VII); type: in vivo; conditions: PAB mice

Row | Structure (SMILES) | the same expression changes in the sham surgery group [1] | number of RV monocytes / green (monocyte lineage) cells after PAB [2] | number of RV monocytes / green (monocyte lineage) cells after PAB ([2]; listed as ASA) | replication of the ifetroban results (fibrosis, hypertrophy, TSP-4, TGF-beta) ([3]; low-dose aspirin) | RV fibrosis (Masson's trichrome) ([3]; oral aspirin 10 mg/kg/day, 2 weeks)
1 | CCCCCNC(=O)c1coc([C@H]2[C@@H](Cc3ccccc3CCC(=O)O)[C@@H]3CC[C@H]2O3)n1 [Ifetroban sodium, [1S-(1α,2α,3α,4α)]-2-[[3-[4-[(Pentylamino)carbonyl]-2-oxazolyl]-7-oxabicyclo[2.2.1]hept-2-yl]methyl]-benzenepropanoic acid, monosodium salt] | not found in the sham surgery group | – | – | – | –
2 | CC(=O)Oc1ccccc1C(=O)O [aspirin] | – | appeared to increase the number of RV monocytes | significantly increases numbers of green cells | failed to replicate these results | failed to prevent fibrosis
